Test results: patent publication US7288258B2, “Polyepitopic protein fragments of the E6 and E7 proteins of HPV, their production and their use particularly in vaccination” (Peptide Immune Ligands, priority 1999, dated 2007)

How the values were obtained:
Test in all cases: association of peptide with HLA molecules and stability of the complex
Assay type in all cases: binding, human
Settings in all cases: stable complex: peptide remains bound for at least about 3 hours at 37° C.
[1] = system: HLA molecules of the B62 type
Excerpt: (§1) The different epitopes of the polyepitopic region of the predetermined protein, and delimiting the epitopic protein fragments, are preferably selected from the peptides; • binding to a predetermined molecule of MCH, particularly to a molecule of the predetermined HLA type, and this from concentrations of about 10^−6 M to about 10^−10 M in peptide for concentrations of about 10^−7 M of HLA molecules, particularly under the conditions described hereafter, • and forming a stable complex with said MCH molecule, namely particularly a complex in which said peptide remains bound to said molecule for at least about 3 hours at 37° C.
(§2) By way of illustration, the above-mentioned epitopes of the invention are selected from among the peptides adapted: • on the one hand of associating with the molecules of MCH, particularly by using the following method: • incubation (particularly for about 2 hours at 25° C., then about 15 hours at 4° C.) of the peptide in the presence of MCH molecules, from the lysis of human or animal cells, or purified particularly by affinity chromatography from human or animal cell lines, • trapping complexes formed during the preceding step on a solid support covered with a first antibody, particularly monoclonal, recognizing specifically the CMH molecules in their configuration dependent on their connection to said peptide, • addition to the preceding solid support of a second marked antibody, particularly by coupling to a radioactive, enzymatic or fluorescent marker, said marked antibody recognizing specifically either the long chains of MCH in their configuration dependent on their connection to the peptide, or the short chain of MCH or the β2-microglobulin binding specifically to the different long chains of the MCH in their above-mentioned configuration, • detection, after rinsing of the solid support, of the possible presence of the second marked antibody remaining fixed on the solid support, signifying an association effect between the molecules of MCH and the peptide studied, • and, on the other hand, forming a complex with said MCH molecules, whose stability can be evaluated by the use of a method of following according to time the connection established between the peptide and the MCH molecules, this method being preferably carried out according to a protocol identical to the preceding method, but in which the incubation step of the peptide in the presence of MCH molecules on the solid support covered with said first antibody, is preceded by a preliminary step of eliminating the free peptide adapted that may be present in the reaction medium, particularly by washing the solid support, said incubation step being carried out (preferably at a temperature of 37° C.) for variable times of 1 hours, 3 hours, 5 hours, 24 hours and 48 hours.
(§3) As mentioned above, the epitopes of the invention should be recognized by the T cells in association with the MCH molecules and associate with these latter, particularly in the framework of the practice of the recognition test described above. This association can be weak (detectable at concentrations of peptide analogs of the order of 10^−4 to 10^−5 M), intermediate (detectable at concentrations of peptide analogs of the order of 10^−6 to 10^−7 M), or strong (detectable at concentrations of peptide analogs of the order of 10^−8 to 10^−9 M). The peptides associated with the MCH molecules in the scope of the present invention are preferably adapted to bond during at least about 3 hours, to said MCH molecules.

[2] = system: HLA molecules of the B18 type
Excerpt: as §1, §2, §3

[3] = system: HLA molecules of the B35 type
Excerpt: as §1, §2, §3

[4] = system: HLA molecules of the B51 type
Excerpt: as §1, §2, §3

[5] = system: HLA molecules of the B8 type
Excerpt: as §1, §2, §3

[6] = system: HLA molecules of the A1 type

RVRAMAIY (listed as Homo sapiens)
binding stably to HLA molecules of the B62 type [1]: binding stably

CPEEKQRHL (Human Papillomavirus)
binding stably to HLA molecules of the B18 type [2]: binding stably | binding stably to HLA molecules of the B35 type [3]: binding stably | binding stably to HLA molecules of the B51 type [4]: binding stably | binding stably to HLA molecules of the B8 type [5]: binding stably

ISEYRHYCY (Human Papillomavirus)
binding stably to HLA molecules of the A1 type [6]: binding stably | binding stably to HLA molecules of the B18 type [2]: binding stably

TAKSVTCTY (listed as Homo sapiens)
binding stably to HLA molecules of the B62 type [1]: binding stably

NLLGRNSF (listed as Homo sapiens)
binding stably to HLA molecules of the B62 type [1]: binding stably

QPETTDLYCY (Human Papillomavirus)
binding stably to HLA molecules of the A1 type [6]: binding stably | binding stably to HLA molecules of the B18 type [2]: binding stably

QAEPDRAHY (Human Papillomavirus)
binding stably to HLA molecules of the A1 type [6]: binding stably | binding stably to HLA molecules of the B18 type [2]: binding stably

LQPETTDLY (Human Papillomavirus)
binding stably to HLA molecules of the B62 type [1]: binding stably
